According to patent publication US7220775B2, “Compound useful for the treatment of neuropathic pain” (H. Lundbeck A/S, priority 2002, dated 2007):

Key:
[1] = target: T1, Human 5HT1E receptor (Homo sapiens, UniProt P28566); experiment: 5HT1E receptor binding ([3H]-serotonin); conditions: Table 8
T1 construct: expressed in transfected cells
Procedure: Human 5HT1B, 5HT1D, 5HT1E, 5HT1F, and 5HT7 Receptors: The cell lysates of LM(tk−) clonal cell line stably transfected with the genes encoding each of these 5HT receptor-subtypes were prepared as described above. Cell membranes were suspended in 50 mM Tris-HCl buffer (pH 7.4 at 37° C.) containing 10 mM MgCl2, 0.2 mM EDTA, 10 µM pargyline, and 0.1% ascorbate. […] Nonspecific binding was determined in the presence of 10 μM serotonin. The bound radioligand was separated by filtration through GF/B filters using a cell harvester.

[2] = target: T2, Human 5HT2A receptor (Homo sapiens, UniProt P28223); experiment: 5HT2A receptor binding ([3H]ketanserin); conditions: Table 8
T2 construct: expressed in transfected cells; host or cells: COS-7 cells, transient, vector pCEXV-3
T2 sequence (P28223 whole entry): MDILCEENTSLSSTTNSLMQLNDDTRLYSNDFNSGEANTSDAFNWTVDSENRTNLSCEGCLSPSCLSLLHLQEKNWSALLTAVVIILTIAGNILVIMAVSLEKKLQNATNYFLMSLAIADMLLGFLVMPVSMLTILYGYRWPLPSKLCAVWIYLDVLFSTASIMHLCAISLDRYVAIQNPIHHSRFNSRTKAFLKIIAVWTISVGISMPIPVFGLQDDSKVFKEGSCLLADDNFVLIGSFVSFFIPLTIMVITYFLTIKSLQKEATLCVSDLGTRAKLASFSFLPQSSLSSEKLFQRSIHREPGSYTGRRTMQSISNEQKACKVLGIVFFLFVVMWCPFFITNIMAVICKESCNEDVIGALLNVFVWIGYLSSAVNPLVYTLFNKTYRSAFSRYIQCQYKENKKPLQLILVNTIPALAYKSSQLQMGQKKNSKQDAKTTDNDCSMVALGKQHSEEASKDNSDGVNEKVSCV
Procedure: Human 5HT2A Receptor: The coding sequence of the human 5HT2A receptor was obtained from a human brain cortex cDNA library, and cloned into the cloning site of pCEXV-3 eukaryotic expression vector. This construct was transfected into COS-7 cells by the DEAE-dextran method (Cullen, 1987). Cells were harvested after 72 hours and lysed by sonication in 5 mM Tris-HCl, 5 mM EDTA, pH 7.5. The cell lysates were subjected to centrifugation at 1000 rpm for 5 minutes at 4° C., and the supernatant was subjected to centrifugation at 30,000×g for. 20 minutes at 4° C. The pellet was suspended in 50 mM Tris-HCl buffer (pH 7.7 at room temperature) containing 10 mM MgSO4, 0.5 mM EDTA, and 0.1% ascorbate. The affinity of compounds at 5HT2A receptors were determined in equilibrium competition binding assays using [^3H]ketanserin (1 nM). Nonspecific binding was defined by the addition of 10 μM mianserin. The bound radioligand was separated by filtration through GF/B filters using a cell harvester.

[3] = target: T3, h5HT6 (Homo sapiens, UniProt P50406); experiment: 5-HT6 receptor binding; conditions: Table 8
T3 construct: expressed in transfected cells
Procedure: Other 5-HT Receptors: Other serotonin receptor binding assays were performed according to published methods: rat 5HT2C receptor (Julius et al., 1988); and 5-HT6 (Monsma, et al., 1993). The binding assays using the 5-HT4 receptor were performed according to the procedures described in U.S. Pat. No. 5,766,879, the disclosure of which is hereby incorporated by reference in its entirety into this application.

[4] = target: T4, 5HT transporter (r5HT Uptk) (Rattus norvegicus, UniProt P31652); experiment: Binding at native 5HT transporter; conditions: Table 8
T4 construct: native, tissue-derived transporters; from tissue
T4 sequence (P31652 whole entry): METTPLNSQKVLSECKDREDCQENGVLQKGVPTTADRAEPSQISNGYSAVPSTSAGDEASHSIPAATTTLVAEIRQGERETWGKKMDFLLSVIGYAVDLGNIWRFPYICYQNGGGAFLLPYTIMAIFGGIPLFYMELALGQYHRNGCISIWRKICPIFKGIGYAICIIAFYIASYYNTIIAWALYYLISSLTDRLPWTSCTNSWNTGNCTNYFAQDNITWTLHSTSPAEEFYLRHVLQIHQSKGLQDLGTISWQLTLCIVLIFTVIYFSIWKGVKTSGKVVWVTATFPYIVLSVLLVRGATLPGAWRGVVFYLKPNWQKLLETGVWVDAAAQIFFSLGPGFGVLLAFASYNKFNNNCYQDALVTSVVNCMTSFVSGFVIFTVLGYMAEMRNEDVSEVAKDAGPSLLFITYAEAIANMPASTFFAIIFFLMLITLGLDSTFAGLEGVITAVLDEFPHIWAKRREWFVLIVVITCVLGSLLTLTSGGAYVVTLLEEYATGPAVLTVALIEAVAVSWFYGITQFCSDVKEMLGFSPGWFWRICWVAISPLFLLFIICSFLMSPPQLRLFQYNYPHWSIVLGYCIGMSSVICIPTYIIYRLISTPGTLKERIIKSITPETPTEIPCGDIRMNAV
Procedure: (§1) The binding properties of the compounds of the present invention were evaluated at one or more cloned receptors or native, tissue-derived transporters, using protocols described below.
(§2) The methods to determine binding affinity at native transporters are described in the following publications: 5HT transporter and NE transporter (Owens et al., 1997), and DA transporter (Javitch et al, 1984).

[5] = target: NE transporter (rNE Uptk) (Rattus norvegicus, UniProt Q9WTR4); experiment: Binding at native NE transporter; conditions: Table 7, native transporter
Procedure: as §1, §2

[6] = tested on: NE transporter (rNE Uptk); experiment: Binding at native NE transporter; set-up: species or system rat; conditions: Table 8
Procedure: as §1, §2

[7] = target: T5, human α1B adrenoceptor (Homo sapiens, UniProt P35368); experiment: α1B adrenergic receptor binding; conditions: Table 10
T5 construct: expressed in transfected cells
T5 sequence (P35368 whole entry): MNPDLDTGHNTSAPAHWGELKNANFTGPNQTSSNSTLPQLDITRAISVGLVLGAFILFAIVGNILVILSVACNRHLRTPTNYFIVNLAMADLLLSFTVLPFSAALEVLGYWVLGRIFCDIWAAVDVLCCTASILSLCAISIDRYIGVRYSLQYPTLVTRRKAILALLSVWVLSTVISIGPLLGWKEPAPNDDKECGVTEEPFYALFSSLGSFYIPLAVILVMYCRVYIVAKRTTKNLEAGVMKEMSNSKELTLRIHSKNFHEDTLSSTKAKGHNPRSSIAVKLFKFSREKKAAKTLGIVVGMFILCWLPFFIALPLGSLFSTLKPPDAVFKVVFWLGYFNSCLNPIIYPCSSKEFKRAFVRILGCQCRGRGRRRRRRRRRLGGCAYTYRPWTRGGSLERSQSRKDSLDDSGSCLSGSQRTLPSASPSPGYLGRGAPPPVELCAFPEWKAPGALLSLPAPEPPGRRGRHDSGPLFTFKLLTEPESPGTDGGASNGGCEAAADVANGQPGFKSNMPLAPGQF
Text: (§3) Other receptors: Cell membranes expressing human dopamine D1, D2, D4 and rat D3 receptors were purchased through BioSignal, Inc. (Montreal, Canada). Binding assays using the histamine H, receptor; dopamine receptors; and α1A, α1B, and α2 adrenergic receptors may be carried out according to the procedures described in U.S. Pat. No. 5,780,485, the disclosure of which is hereby incorporated by reference in its entirety into this application. Binding assays using the dopamine D5 receptor may be carried out according to the procedures described in U.S. Pat. No. 5,882,855, the disclosure of which is hereby incorporated by reference in its entirety into this application. Binding assays for the human α1D adrenergic receptor may be carried out according to the procedures described in U.S. Pat. No. 6,156,518, the disclosure of which is hereby incorporated by reference in its entirety into this application.

[8] = target: T6, human α1D adrenergic receptor (Homo sapiens, UniProt P25100); experiment: α1D adrenergic receptor binding; conditions: Table 10
T6 construct: expressed in transfected cells
T6 sequence (P25100 whole entry): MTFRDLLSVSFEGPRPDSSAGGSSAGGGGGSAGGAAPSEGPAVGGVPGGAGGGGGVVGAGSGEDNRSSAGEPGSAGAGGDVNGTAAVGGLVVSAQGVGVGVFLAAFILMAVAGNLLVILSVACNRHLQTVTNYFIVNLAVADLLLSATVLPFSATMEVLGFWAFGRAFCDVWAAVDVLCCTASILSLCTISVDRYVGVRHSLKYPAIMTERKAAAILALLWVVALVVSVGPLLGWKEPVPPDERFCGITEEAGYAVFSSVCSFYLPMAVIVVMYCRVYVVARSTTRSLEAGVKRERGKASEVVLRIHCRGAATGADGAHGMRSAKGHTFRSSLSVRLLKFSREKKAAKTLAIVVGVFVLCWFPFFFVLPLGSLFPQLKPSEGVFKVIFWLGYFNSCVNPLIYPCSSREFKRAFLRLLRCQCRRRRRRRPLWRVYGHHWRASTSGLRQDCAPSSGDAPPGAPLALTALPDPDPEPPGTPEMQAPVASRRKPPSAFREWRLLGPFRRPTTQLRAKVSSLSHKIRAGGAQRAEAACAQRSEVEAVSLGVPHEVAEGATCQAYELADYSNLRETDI
Text: as §3

[9] = target: T7, human α2B adrenoceptor (Homo sapiens, UniProt P18089); experiment: α2B adrenergic receptor binding; conditions: Table 10
T7 construct: expressed in transfected cells
T7 sequence (P18089 whole entry): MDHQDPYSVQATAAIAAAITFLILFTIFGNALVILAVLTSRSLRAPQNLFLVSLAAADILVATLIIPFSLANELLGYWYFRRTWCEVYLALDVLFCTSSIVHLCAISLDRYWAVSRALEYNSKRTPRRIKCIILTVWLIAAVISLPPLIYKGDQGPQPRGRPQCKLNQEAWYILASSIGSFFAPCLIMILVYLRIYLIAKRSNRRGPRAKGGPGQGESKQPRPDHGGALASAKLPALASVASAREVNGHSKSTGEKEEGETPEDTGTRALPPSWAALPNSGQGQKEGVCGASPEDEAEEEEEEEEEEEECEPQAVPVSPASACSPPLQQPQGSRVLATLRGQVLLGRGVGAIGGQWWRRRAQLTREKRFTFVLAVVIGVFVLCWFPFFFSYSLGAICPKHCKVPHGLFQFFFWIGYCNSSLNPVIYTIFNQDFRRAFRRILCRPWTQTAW
Text: as §3

[10] = target: T8, human α2C adrenoceptor (Homo sapiens, UniProt P18825); experiment: α2C adrenergic receptor binding; conditions: Table 10
T8 construct: expressed in transfected cells
T8 sequence (P18825 whole entry): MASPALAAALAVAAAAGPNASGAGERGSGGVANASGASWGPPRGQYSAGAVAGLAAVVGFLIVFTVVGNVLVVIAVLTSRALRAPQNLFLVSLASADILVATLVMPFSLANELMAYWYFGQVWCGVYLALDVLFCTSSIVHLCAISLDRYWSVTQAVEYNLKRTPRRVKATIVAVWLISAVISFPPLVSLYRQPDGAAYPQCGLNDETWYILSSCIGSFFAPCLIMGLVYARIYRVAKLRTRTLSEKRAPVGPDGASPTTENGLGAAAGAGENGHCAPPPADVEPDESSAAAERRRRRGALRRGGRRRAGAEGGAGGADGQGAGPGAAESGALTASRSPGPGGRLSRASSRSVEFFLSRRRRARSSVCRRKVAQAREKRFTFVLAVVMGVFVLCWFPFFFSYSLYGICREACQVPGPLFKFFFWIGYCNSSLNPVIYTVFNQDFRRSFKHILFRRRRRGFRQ
Text: as §3

[11] = target: T9, human dopamine D2 receptor (Homo sapiens, UniProt P14416); experiment: Dopamine D2 receptor binding; conditions: Table 10
T9 construct: purchased BioSignal, Inc. (Montreal, Canada)
T9 sequence (P14416 whole entry): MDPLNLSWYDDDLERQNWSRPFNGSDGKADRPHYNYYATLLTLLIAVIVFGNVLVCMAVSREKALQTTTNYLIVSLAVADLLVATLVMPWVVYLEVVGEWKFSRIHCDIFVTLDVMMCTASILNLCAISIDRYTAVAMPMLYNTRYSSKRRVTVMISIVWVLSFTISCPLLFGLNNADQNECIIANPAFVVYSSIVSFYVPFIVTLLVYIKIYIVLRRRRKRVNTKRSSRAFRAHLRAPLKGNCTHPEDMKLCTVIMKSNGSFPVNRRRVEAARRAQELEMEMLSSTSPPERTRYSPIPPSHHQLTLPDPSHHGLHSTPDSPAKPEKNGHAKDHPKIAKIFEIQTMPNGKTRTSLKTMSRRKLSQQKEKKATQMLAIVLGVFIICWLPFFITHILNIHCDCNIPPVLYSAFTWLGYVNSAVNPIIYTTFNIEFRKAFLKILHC
Text: as §3

[12] = target: T10, rat D3 receptor (Rattus norvegicus, UniProt P19020); experiment: Dopamine D3 receptor binding; conditions: Table 10
T10 construct: purchased BioSignal, Inc. (Montreal, Canada)
Text: as §3

[13] = target: T11, human dopamine D4 receptor (Homo sapiens, UniProt P21917); experiment: Dopamine D4 receptor binding; conditions: Table 10
T11 construct: purchased BioSignal, Inc. (Montreal, Canada)
T11 sequence (P21917 whole entry): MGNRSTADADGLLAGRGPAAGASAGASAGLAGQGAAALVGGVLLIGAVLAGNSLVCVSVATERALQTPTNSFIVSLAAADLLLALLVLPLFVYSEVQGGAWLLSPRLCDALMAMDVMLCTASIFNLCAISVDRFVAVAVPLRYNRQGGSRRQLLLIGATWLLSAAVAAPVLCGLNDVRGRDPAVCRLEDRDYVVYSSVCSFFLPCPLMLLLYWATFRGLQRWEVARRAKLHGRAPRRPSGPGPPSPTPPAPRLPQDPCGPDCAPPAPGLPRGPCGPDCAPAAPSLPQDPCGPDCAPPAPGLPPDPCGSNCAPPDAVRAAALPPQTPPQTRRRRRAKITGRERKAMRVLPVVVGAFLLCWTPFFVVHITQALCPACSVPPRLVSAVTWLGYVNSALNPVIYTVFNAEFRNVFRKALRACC
Text: as §3

[14] = target: human histamine H1 receptor (Homo sapiens, UniProt P35367); experiment: Histamine H1 receptor binding; conditions: Table 10
Chain of human histamine H1 receptor (P35367 whole entry): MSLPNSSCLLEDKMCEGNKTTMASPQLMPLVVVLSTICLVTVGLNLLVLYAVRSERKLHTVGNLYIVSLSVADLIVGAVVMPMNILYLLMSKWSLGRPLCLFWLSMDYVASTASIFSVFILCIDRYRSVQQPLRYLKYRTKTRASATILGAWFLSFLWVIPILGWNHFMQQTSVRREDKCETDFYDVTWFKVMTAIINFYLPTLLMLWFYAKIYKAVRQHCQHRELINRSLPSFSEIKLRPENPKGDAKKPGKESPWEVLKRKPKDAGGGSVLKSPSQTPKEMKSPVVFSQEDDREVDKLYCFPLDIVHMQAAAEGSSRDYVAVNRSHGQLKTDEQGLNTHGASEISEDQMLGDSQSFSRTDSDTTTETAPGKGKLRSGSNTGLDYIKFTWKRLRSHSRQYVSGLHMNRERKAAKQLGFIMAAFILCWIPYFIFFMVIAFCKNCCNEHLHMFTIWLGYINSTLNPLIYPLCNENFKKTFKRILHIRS
Text: as §3

T1 sequence (P28566 whole entry): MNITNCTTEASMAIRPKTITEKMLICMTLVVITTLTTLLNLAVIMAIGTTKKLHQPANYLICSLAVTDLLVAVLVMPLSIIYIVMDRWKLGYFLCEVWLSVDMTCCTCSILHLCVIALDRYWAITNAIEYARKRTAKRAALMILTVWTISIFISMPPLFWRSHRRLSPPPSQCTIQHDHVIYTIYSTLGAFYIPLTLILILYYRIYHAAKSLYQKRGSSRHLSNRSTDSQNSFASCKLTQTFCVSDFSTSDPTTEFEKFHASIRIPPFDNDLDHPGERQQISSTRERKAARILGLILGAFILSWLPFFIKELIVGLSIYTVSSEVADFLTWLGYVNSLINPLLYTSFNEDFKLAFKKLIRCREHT

`O=C1C(=Nc2cccc(C(F)(F)F)c2)c2ccccc2N1c1ccccc1` [Example 92, 1-PHENYL-3-[[3-(TRIFLUOROMETHYL)PHENYL]IMINO]-1,3-DIHYDRO-2H-INDOL-2-ONE] was tested, and the “selectivity ratio h5HT1E (Ki h5HT1E / Ki hGAL3)” value [1] was over 100, the “selectivity ratio h5HT2A (Ki h5HT2A / Ki hGAL3)” value [2] was over 100 and the “selectivity ratio h5HT6 (Ki h5HT6 / Ki hGAL3)” value [3] was over 100. For the same molecule, the “selectivity ratio r5HT Uptk (Ki r5HT Uptk / Ki hGAL3)” value [4] was over 100, the Ki [5] was 33.9 µM and the “selectivity ratio rNE Uptk (Ki rNE Uptk / Ki hGAL3)” value [6] was over 100. The “selectivity ratio hα1B (Ki hα1B / Ki hGAL3)” value [7] was over 100, the “selectivity ratio hα1D (Ki hα1D / Ki hGAL3)” value [8] was over 100 and the “selectivity ratio hα2B (Ki hα2B / Ki hGAL3)” value [9] was over 100. The “selectivity ratio hα2C (Ki hα2C / Ki hGAL3)” value [10] was over 100, the “selectivity ratio hD2 (Ki hD2 / Ki hGAL3)” value [11] was over 100 and the “selectivity ratio rD3 (Ki rD3 / Ki hGAL3)” value [12] was over 100. For the same molecule, the “selectivity ratio hD4 (Ki hD4 / Ki hGAL3)” value [13] was over 100 and the “selectivity ratio hH1 (Ki hH1 / Ki hGAL3)” value [14] was over 100.
